Results on 2 compounds are retold here after PMC9186491, “Novel Small Molecule Tyrosine Kinase 2 Pseudokinase Ligands Block Cytokine-Induced TYK2-Mediated Signaling Pathways” (Frontiers in Immunology, 2022).

In experiment [1] the test system is IFNα-induced CXCL10 production in human whole blood. Put plainly: IFNα-induced CXCL10 production in human whole blood. Format: cell-based. As to the method: Human whole blood [drawn with Ethylenediaminetetraacetic acid (EDTA) as anti-coagulant] was obtained from Zen-Bio Inc. (Durham, NC). […] The plasma was collected for detection of C-X-C motif chemokine 10 (CXCL10, IP10) secretion. CXCL10 was measured by Human CXCL10/IP-10 AlphaLISA Kit (PerkinElmer, #AL259 C/F) according to the manufacturer’s instructions.

The test system of experiment [2] is IL12-induced IFNγ production in human PBMCs. Put plainly: IL12-induced IFNγ production in human PBMCs. It is filed as cell-based. As to conditions: PBMC, IL12 overnight, read-out: TYK2-associated IL12-induced-IFNγ Production in Human PBMCs: IC50. The method, then: Human PBMC samples were obtained from iQ Biosciences, CA. 1.0 × 10^6/mL PBMCs were seeded in complete RPMI at a sterilized U-shaped 96-well plate with a volume of 200 μL/well. PBMCs were treated by serially-diluted test compounds, and incubated with 40 ng/mL recombinant human IL12 (Biolegend, #573002) for overnight in a humidified, 5% CO2 cell culture incubator at 37°C. The supernatant was then collected for detection of IFNγ secretion. IFNγ level was measured by Human IFNγ AlphaLISA Kit (PerkinElmer, AL217C/F) according to the manufacturer’s instructions.

Experiment [3] deals with JAK1-dependent IL6-induced phosphorylation of STAT3 (Tyr705) in TF1 cells. Put plainly: JAK cellular selectivity assay, IL6-pSTAT3 (JAK1). Format: cell-based. As to conditions: Homo sapiens, TF-1, read-out: JAK Cellular Selectivity (IC50) IL6-pSTAT3 (JAK1). As to the method: (§1) The cells were then ready for the assay after incubating for 2 hours in a humidified, 5% CO2 cell culture incubator at 37°C. […] The curve fit was generated, and statistical analysis was performed using GraphPad Prism. IC50 values were derived by non-linear regression analysis and defined as the compound concentration at which the response level was reduced to half of its maximum relative to a DMSO control.

For experiment [4], the system named is JAK2-dependent EPO-induced phosphorylation of STAT5 (Tyr694/699) in TF1 cells. Put plainly: JAK cellular selectivity assay, EPO-pSTAT5 (JAK2). It is filed as cell-based, human. The method, then:
as §1

The subject of experiment [5] is JAK1/3-dependent IL2-induced phosphorylation of STAT5 (Tyr694/699) in Kit225 cells. Put plainly: JAK cellular selectivity assay, IL2-pSTAT5 (JAK1/3). Format: cell-based. The note with it: Homo sapiens, KIT225, read-out: JAK Cellular Selectivity (IC50) IL2-pSTAT5 (JAK1/3). As to the method:
as §1

For experiment [6], the system named is IL23-induced-IL17 production in mouse splenocytes. Put plainly: IL23-induced IL17 production in mouse splenocytes. It is filed as cell-based. The note with it: Splenocyte; IL23-stimulated mouse splenocytes; read-out: mIL17 IC50. The method, then: (§2) generated by non-linear regression analysis to determine the IC50 values of compounds using […]
(Monkey, Canine, Rat and Mouse)
(A) Suppression of IL23-induced-IL17 production in mouse splenocytes by TYK2 JH2 ligands, […]
(§3) JH2 ligands, SHR2915, 0936, 1039 and 1213, in mouse splenocytes (B), Canine PBMCs (C), Rat PBMCs (D) and Macaque PBMCs (E). Inhibition data were calculated by comparison to vehicle […]
(§4) response curves were then generated to determine the IC50 values as derived by non-linear regression analysis using GraphPad Prism. […]

Experiment [7] deals with IL12-induced-IFNg production in mouse splenocytes. Put plainly: IL12-induced IFNγ production in mouse splenocytes. It is filed as cell-based. The note with it: Splenocyte.
The test system of experiment [8] is IL12-induced-IFNg production in Canine PBMCs. Put plainly: IL12-induced IFNγ production in canine PBMCs. The note with it: Canis lupus familiaris, PBMC. Format: cell-based. As to the method:
as §2
(§5) (Monkey, Canine, Rat and Mouse) […]
as §3, §4

In experiment [9] the test system is IL12-induced-IFNg production in Rat PBMCs. Put plainly: IL12-induced IFNγ production in rat PBMCs. As to conditions: PBMC. Format: cell-based. The method, then:
as §2, §5, §3, §4

In experiment [10] the test system is IL12-induced-IFNg production in Macaque PBMCs. Put plainly: IL12-induced IFNγ production in macaque PBMCs. Format: cell-based, Macaque (Cyno Monkey). As to conditions: Primates, PBMC, read-out: IL12-induced-IFNg, IC50, Monkey. As to the method: as §2, §5, §3, §4
The subject of experiment [11] is IFNα-induced TYK2/phosphoSTAT1 (Tyr701) in Kit225 T cells. Put plainly: Kit225 T cell assay for IFNα-induced TYK2/phosphoSTAT1 activity. Format: cell-based, human. As to conditions: Kit225 cells, 80 ng/mL IFNα, AlphaLISA; read-out: IC50 IFNα-induced-STAT1 Phosphorylation. The method, then: The cells were treated with serially diluted compounds for 1 hour and stimulated with 80 ng/mL human recombinant IFNα (R&D Systems) for 15 minutes. The treated cells were then lysed and cellular phosphorylated-STAT1 (Tyr701) levels were measured by AlphaLISA (PerkinElmer, Cat#ALSU-PST1) according to the manufacturer’s instructions.

Experiment [12] deals with IL23-induced TYK2/phosphoSTAT3 (Tyr705) in Kit225 T cells. Put plainly: Kit225 T cell assay for IL23-induced TYK2/phosphoSTAT3 activity. As to conditions: Kit225 cells, 100 ng/mL IL23, AlphaLISA; read-out: IC50 IL23-induced-STAT3 Phosphorylation. Format: cell-based, human. As to the method:
The cells were treated with serially diluted compounds for 1 hour and stimulated with 100 ng/mL human recombinant IL23 (R&D Systems) for 20 minutes. The treated cells were then lysed and cellular phosphorylated-STAT3 (Tyr705) levels were measured by AlphaLISA (PerkinElmer, Cat# ALSU-PST3) according to the manufacturer’s instructions.

Experiment [13] has as its system moderate to severe psoriasis patients. More on the design: method as in PMID 30205746. As to conditions: phase II, 267 patients; cited from earlier work.

Where two headings read alike, the source gives them in different places.

As for `CNC(=O)c1nnc(Nc2ccc(N3CCC3)cn2)cc1Nc1cccc(-c2ncn(C)n2)c1OC` [SHR2915], the IC50 in experiment [1] (Homo sapiens, 16 h, read-out: TYK2-associated IFNα-induced-CXCL10 Production in Human Whole Blood: IC50) is 160 nM; in [2], 45 nM; in experiment [3] it was 200 ± 11 nM; in [4] (Homo sapiens, TF-1, read-out: JAK Cellular Selectivity (IC50) EPO-pSTAT5 (JAK2)) it was > 10000 nM; in experiment [5], 2300 ± 970 nM; in experiment [6] it was 11 nM. Moreover, the IC50 is 60 nM in [7], 33 nM in experiment [8], 3 nM in experiment [9] and 14 nM in experiment [10].
Take Deucravacitinib: the IC50 in experiment [11] worked out at 8.5 nM; in [12], 5 nM; in [1] (Donor 1, read-out: IFNa-induced-CXCL10 Production in Human Whole Blood IC50, Donor 1), 110 nM; in experiment [1] (Donor 2, read-out: IFNa-induced-CXCL10 Production in Human Whole Blood IC50, Donor 2), 94 nM; in experiment [1] (Donor 3, read-out: IFNa-induced-CXCL10 Production in Human Whole Blood IC50, Donor 3), 83 nM; in experiment [1] (average of Donor 1-3, read-out: IFNa-induced-CXCL10 Production in Human Whole Blood IC50, Average), 96 nM. In addition, the IC50 in experiment [4] (TF1 cells, read-out: JAK Cellular Selectivity (IC50) EPO-pSTAT5 (JAK2)) was > 10000 nM. Besides, in [13], the “Daily dose at which clinically effective” value is ≥ 3 mg.
